According to patent US8299056B2 (Signal Pharmaceuticals, LLC, priority 2008, dated 2012):

These compounds were tested against T1, Syk (Homo sapiens, UniProt P43405) (assay: Syk HTRF assay). Conditions: IC50 activity level, read-out: Activity Level.
T1 construct: purchased Carna Biosciences
Assay type: biochemical
How it was run: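 Read-out is the 665 nm/615 nm time-resolved fluorescence ratio after EDTA stop and Eu-anti-phosphotyrosine plus streptavidin-DyLight 647 detection. Reaction ran 1 h at room temperature with start mix of 87.5 μM ATP and 80 nM substrate peptide in pH 7.6 HEPES/MgCl2 buffer.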

Row | Structure (SMILES) | IC50 [nM]
1 | c1ccc(Nc2nc3cccc(-c4ccnc(N5CCNCC5)c4)n3n2)cc1 [Example 520, N-phenyl-5-(2-(piperazin-1-yl)pyridin-4-yl)-[1,2,4]triazolo[1,5-a]pyridin-2-amine] | 1000 to 10000

Same assay, conditions: activity levels A-D, read-out: Activity Level (IC50 in the Syk HTRF assay)

Row | Structure (SMILES) | IC50 [nM]
2 | O[C@@H]1CCC[C@H](Nc2cccc3nc(Nc4ccc(C(F)(F)F)cc4)nn23)C1 (single isomer, unassigned; enantiomer 1) [Example 223, cis-3-(2-(4-(trifluoromethyl)phenylamino)-[1,2,4]triazolo[1,5-a]pyridin-5-ylamino)cyclohexanol (enantiomer 1)] | 1000 to 10000
3 | FC(F)(F)c1ccc(Nc2nc3cccc(CN4CCOCC4)n3n2)cc1 [Example 308, 5-(morpholinomethyl)-N-(4-(trifluoromethyl)phenyl)-[1,2,4]triazolo[1,5-a]pyridin-2-amine] | 1000 to 10000
4 | O=c1cc(Cc2cccc3nc(Nc4ccc(C(F)(F)F)cc4)nn23)cc[nH]1 [Example 317, 4-((2-(4-(trifluoromethyl)phenylamino)-[1,2,4]triazolo[1,5-a]pyridin-5-yl)methyl)pyridin-2(1H)-one] | 0.005 to 250
5 | O[C@H]1CC[C@@H](Nc2cccc3nc(Nc4ccc(N5CCOCC5)nc4)nn23)CC1 [Example 313, cis-4-(2-(6-morpholinopyridin-3-ylamino)-[1,2,4]triazolo[1,5-a]pyridin-5-ylamino)cyclohexanol] | 0.005 to 250
6 | O=C1Cc2ccc(Nc3nc4cccc(N[C@H]5CC[C@@H](O)CC5)n4n3)cc2N1 [Example 238, cis-6-(5-(4-hydroxycyclohexylamino)-[1,2,4]triazolo[1,5-a]pyridin-2-ylamino)indolin-2-one] | 0.005 to 250
7 | NC(=O)c1cc(Nc2nc3cccc(N[C@H]4CC[C@@H](O)CC4)n3n2)ccc1F [Example 318, cis-2-fluoro-5-(5-(4-hydroxycyclohexylamino)-[1,2,4]triazolo[1,5-a]pyridin-2-ylamino)benzamide] | 1000 to 10000

Same assay, conditions: read-out: Activity Level (Syk HTRF assay IC50)

Row | Structure (SMILES) | IC50 [nM]
8 | NC(=O)c1cc(Nc2nc3cccc(-c4ccccc4)n3n2)ccn1 [compound 51, 4-(5-phenyl-[1,2,4]triazolo[1,5-a]pyridin-2-ylamino)picolinamide] | 1000 to 10000
9 | CC1(C)C(=O)Nc2cc(Nc3nc4cccc(N[C@H]5CC[C@@](C)(O)CC5)n4n3)ccc21 [Example 163, cis-6-(5-(4-hydroxy-4-methylcyclohexylamino)-[1,2,4]triazolo[1,5-a]pyridin-2-ylamino)-3,3-dimethylindolin-2-one] | 0.005 to 250
10 | CNC(=O)c1ccc(Nc2nc3cccc(-c4ccccc4Cl)n3n2)cc1 [compound 22, 4-(5-(2-chlorophenyl)-[1,2,4]triazolo[1,5-a]pyridin-2-ylamino)-N-methylbenzamide] | 1000 to 10000
11 | Oc1ccc2cc(Nc3nc4cccc(-c5ccccc5)n4n3)ccc2n1 [compound 26, 6-(5-phenyl-[1,2,4]triazolo[1,5-a]pyridin-2-ylamino)quinolin-2-ol] | 0.005 to 250
12 | CC1(C)C(=O)Nc2cc(Nc3nc4cccc(N[C@H]5CC[C@](C)(O)CC5)n4n3)ccc21 [Example 162, trans-6-(5-(4-hydroxy-4-methylcyclohexylamino)-[1,2,4]triazolo[1,5-a]pyridin-2-ylamino)-3,3-dimethylindolin-2-one] | 0.005 to 250
13 | CNC(=O)c1ccc(Nc2nc3cccc(-c4cccc(Cl)c4)n3n2)cc1 [compound 13, 4-(5-(3-chlorophenyl)-[1,2,4]triazolo[1,5-a]pyridin-2-ylamino)-N-methylbenzamide] | 0.005 to 250
14 | CN1C(=O)C(C)(C)c2ccc(Nc3nc4cccc(N[C@H]5CC[C@](C)(O)CC5)n4n3)cc21 [compound 110] | 0.005 to 250
15 | CC(c1cccc2nc(Nc3ccc4c(c3)NC(=O)C4(C)C)nn12)C1CCOCC1 (stereo not shown) [Example 159, 3,3-dimethyl-6-(5-(1-(tetrahydro-2H-pyran-4-yl)ethyl)-[1,2,4]triazolo[1,5-a]pyridin-2-ylamino)indolin-2-one] | 0.005 to 250
16 | c1ccc(-c2cccc3nc(Nc4ccc5[nH]ncc5c4)nn23)cc1 [compound 61] | 0.005 to 250
